The source made the active and inactive calls.
Tests used:
HEK293 [1] = test: cells; type: functional, cell-based; details: Homo sapiens
[2] = target: T1, Nuclear receptor subfamily 0 group B member 1 (Homo sapiens, UniProt P51843); test: Luminescence-based cell-based high throughput dose response assay for inhibitors of the orphan nuclear receptor subfamily 0, group B, member 1 (DAX1; NR0B1). [Related pubchem assays (depositor defined):AID504766, AID504790]; type: functional
T1 sequence (P51843 whole entry): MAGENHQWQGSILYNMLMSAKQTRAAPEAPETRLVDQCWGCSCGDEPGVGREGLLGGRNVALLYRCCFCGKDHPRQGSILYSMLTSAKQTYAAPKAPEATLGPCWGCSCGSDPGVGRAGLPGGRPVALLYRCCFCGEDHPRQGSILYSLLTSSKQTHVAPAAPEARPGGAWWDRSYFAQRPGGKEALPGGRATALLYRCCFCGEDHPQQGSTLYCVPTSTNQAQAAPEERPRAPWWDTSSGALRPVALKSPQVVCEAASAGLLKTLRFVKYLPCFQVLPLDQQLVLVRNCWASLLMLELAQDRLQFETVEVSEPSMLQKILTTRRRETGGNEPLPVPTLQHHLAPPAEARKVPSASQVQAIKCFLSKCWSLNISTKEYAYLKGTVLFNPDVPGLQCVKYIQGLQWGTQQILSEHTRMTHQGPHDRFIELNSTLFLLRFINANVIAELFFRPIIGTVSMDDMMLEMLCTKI

[3] = target: Voltage-gated inwardly rectifying potassium channel KCNH2 (Homo sapiens, UniProt Q12809); details: Potency;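 further: confirmatory quantitative high-throughput screen measuring inhibition of hERG channel activity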
Sequence of Voltage-gated inwardly rectifying potassium channel KCNH2 (Q12809 whole entry): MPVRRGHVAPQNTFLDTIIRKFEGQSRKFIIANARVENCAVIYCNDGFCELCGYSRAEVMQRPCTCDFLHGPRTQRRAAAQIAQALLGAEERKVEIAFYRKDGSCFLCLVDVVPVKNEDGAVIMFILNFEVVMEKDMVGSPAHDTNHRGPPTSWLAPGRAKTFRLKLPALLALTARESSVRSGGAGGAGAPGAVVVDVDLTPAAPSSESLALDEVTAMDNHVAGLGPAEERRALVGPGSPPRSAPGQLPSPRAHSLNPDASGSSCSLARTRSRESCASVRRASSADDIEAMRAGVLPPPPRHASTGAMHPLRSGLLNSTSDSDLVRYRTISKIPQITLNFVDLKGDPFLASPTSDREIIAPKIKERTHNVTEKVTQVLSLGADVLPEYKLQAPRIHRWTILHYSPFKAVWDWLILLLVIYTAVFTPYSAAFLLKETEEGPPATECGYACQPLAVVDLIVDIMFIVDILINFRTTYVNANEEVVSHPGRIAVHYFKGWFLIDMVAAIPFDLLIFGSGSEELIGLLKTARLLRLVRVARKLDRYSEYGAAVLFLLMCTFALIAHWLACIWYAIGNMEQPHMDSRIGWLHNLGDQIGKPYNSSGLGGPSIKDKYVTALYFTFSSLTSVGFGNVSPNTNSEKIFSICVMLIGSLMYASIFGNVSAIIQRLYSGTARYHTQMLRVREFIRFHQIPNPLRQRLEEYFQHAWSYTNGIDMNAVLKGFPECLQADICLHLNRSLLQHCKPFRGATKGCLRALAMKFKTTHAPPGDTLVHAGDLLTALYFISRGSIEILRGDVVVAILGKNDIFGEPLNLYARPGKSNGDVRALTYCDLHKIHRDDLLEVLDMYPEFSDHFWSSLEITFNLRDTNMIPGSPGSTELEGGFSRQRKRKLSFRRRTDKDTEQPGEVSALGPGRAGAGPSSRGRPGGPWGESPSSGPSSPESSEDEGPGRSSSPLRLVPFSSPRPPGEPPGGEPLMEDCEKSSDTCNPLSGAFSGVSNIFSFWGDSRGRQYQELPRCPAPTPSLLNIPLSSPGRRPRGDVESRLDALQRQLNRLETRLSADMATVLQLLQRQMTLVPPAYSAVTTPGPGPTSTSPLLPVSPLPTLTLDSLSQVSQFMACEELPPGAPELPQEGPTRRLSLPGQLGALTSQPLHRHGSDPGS

[4] = Luminescent dose response cell-based high throughput screening assay for inhibitors of the Janus kinase 2 mutant JAK2V617F. [Related pubchem assays: 1446 (Primary screen.), 1521 (Confirmation assay.), 1486 (Counter screen.)]; type: functional
BJ [5] = test: BJ-TERT fibroblast viability loss – cell-based, RAS-independent, luminescence, dose response (AID 1933); type: functional; details: Homo sapiens
BJ [6] = test: cells; type: functional, cell-based; details: Homo sapiens
[7] = Trypanosoma cruzi growth suppression in host cells – NIH3T3 host cells, beta-gal luminescence, confirmation (AID 2044); type: functional, cell-based;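 further: intracellular parasites grown in NIH/3T3 mouse fibroblasts as host cells; luminescent beta-galactosidase reporter signal from transgenic T. cruzi replicating inside host cells; inhibitors lower the luminescence signal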
[8] = microbe, parasite or virus in culture; type: functional; details: Mycobacterium tuberculosis
[9] = NIH3T3 cell viability loss – ATP luminescence, mouse fibroblasts, counter-screen, dose response (AID 2010); type: functional, cell-based;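 further: cells exposed to compound for about 90 hours before reading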
BJ [10] = test: BJ-TERT-LT-ST fibroblast viability loss – cell-based, RAS-independent, luminescence, dose response (AID 1935); type: functional; details: Homo sapiens;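 further: BJ fibroblasts immortalized with TERT plus LT and ST oncogenes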
[11] = DRD fibroblast viability loss – cell-based, non-viral oncogenic, luminescence, dose response (AID 1934); type: functional; details: Homo sapiens
[12] = viability loss in HeLa cells – cytotoxicity control for MgcRacGAP inhibitor project, dose response (AID 624300); type: functional
[13] = target: T2, Rac GTPase-activating protein 1 (Homo sapiens, UniProt Q9H0H5); test: blockers of MgcRacGAP-driven Rac1 GTP hydrolysis – biochemical, ADP Hunter fluorescence, primary and confirmatory, confirmation (AID 624330); type: functional
T2 sequence (Q9H0H5 whole entry): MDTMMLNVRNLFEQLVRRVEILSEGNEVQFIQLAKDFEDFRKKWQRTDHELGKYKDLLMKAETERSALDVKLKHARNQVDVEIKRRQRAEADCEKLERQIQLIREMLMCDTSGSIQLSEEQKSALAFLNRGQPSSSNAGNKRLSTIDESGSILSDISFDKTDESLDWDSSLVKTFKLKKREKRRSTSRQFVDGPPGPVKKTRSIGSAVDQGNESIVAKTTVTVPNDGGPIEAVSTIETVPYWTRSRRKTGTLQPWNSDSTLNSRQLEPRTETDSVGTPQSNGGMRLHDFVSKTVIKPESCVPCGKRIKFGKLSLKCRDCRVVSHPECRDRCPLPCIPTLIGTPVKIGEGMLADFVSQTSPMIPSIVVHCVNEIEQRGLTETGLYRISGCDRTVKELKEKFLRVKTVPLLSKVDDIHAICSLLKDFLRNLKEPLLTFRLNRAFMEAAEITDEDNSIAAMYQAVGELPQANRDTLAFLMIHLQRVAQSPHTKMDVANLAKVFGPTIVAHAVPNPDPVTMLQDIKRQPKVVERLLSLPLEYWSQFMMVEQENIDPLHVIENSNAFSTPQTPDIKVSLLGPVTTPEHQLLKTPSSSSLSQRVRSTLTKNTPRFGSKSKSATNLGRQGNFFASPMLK

[14] = target: T3, DNA repair protein RAD52 homolog (Homo sapiens, UniProt P43351); type: functional, biochemical
T3 sequence (P43351 whole entry): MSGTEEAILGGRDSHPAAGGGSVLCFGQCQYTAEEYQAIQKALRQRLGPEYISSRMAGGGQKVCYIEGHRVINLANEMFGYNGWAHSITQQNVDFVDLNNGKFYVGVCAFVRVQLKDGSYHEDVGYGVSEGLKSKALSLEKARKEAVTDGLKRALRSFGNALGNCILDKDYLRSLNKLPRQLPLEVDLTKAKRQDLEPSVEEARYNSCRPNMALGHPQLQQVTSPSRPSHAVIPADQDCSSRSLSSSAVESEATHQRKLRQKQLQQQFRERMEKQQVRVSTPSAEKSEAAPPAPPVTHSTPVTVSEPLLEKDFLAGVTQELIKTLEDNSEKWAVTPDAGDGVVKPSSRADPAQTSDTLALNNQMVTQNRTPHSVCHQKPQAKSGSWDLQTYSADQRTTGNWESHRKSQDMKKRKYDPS

HEK293 [15] = test: cells; details: Homo sapiens
HEK293 [16] = test: cells; details: Homo sapiens; remark: listed apart in the source
Hexokinase-1 [17] = target: T4, Hexokinase-1 (Homo sapiens, UniProt P19367); test: SAR analysis of small molecule inhibitors of hexokinase domain containing I (HKDC1) in the hexokinase 1 selectivity assay. [Related pubchem assays (depositor defined):AID493160, AID493190]; type: functional
T4 sequence (P19367 whole entry): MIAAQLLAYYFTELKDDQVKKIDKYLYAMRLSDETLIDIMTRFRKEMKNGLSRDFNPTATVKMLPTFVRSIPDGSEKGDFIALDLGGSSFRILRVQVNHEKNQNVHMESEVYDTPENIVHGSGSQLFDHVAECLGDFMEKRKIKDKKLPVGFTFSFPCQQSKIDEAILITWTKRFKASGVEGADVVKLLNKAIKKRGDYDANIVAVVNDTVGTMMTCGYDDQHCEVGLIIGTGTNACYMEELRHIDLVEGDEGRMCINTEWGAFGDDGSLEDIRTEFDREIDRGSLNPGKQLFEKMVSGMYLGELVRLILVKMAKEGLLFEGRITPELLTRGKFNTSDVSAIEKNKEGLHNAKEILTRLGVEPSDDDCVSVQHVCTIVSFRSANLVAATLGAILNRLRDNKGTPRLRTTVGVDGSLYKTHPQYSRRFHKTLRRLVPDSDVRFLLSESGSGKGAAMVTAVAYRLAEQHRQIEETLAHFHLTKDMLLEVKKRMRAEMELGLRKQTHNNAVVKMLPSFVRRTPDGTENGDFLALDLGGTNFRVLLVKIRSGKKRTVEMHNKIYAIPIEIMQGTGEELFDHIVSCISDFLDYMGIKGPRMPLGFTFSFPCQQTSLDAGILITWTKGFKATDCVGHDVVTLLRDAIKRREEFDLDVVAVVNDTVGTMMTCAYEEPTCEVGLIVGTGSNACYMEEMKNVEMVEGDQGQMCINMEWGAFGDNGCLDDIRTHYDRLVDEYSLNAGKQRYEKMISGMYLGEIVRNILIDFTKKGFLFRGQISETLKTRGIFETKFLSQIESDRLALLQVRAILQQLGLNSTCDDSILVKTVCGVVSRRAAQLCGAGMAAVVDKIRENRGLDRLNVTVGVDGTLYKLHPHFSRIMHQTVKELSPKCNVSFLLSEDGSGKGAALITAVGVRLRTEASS

Hexokinase HKDC1 [18] = target: T5, Hexokinase HKDC1 (Homo sapiens, UniProt Q2TB90); test: SAR analysis of small molecule inhibitors of hexokinase domain containing I (HKDC1). [Related pubchem assays (depositor defined):AID493160, AID493190]; type: functional
T5 sequence (Q2TB90 whole entry): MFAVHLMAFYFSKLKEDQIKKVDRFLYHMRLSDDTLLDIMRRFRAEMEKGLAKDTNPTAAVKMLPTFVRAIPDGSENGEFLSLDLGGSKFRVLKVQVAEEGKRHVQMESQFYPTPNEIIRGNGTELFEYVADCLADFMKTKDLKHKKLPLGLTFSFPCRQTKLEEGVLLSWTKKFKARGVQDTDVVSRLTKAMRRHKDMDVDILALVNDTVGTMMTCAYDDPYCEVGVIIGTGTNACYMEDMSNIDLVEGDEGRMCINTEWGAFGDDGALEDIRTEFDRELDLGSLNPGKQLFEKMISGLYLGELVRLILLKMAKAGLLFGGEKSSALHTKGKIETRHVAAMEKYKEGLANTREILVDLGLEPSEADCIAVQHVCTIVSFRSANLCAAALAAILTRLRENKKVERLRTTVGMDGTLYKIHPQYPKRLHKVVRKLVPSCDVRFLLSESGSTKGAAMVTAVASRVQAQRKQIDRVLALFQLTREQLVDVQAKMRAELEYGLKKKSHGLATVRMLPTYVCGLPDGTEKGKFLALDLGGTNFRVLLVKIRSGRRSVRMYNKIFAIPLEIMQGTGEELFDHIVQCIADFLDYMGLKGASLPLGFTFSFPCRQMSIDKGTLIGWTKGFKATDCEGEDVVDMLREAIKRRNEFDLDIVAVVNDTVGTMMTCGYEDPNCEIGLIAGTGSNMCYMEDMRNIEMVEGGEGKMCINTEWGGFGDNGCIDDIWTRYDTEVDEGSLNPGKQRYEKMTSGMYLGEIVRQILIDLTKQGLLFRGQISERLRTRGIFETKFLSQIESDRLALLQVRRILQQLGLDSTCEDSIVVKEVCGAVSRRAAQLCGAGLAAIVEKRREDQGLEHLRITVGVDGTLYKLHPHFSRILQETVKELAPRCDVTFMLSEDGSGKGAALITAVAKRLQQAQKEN

[19] = target: Glycogen synthase kinase-3 alpha (Homo sapiens, UniProt P49840); test: Inhibition of Human GSK-3 alpha Activity Measured in Biochemical System Using Microfluidics - 2063-06_Inhibitor_Dose_DryPowder_Activity. [Related pubchem assays (depositor defined):AID2709]
Sequence of Glycogen synthase kinase-3 alpha (P49840 whole entry): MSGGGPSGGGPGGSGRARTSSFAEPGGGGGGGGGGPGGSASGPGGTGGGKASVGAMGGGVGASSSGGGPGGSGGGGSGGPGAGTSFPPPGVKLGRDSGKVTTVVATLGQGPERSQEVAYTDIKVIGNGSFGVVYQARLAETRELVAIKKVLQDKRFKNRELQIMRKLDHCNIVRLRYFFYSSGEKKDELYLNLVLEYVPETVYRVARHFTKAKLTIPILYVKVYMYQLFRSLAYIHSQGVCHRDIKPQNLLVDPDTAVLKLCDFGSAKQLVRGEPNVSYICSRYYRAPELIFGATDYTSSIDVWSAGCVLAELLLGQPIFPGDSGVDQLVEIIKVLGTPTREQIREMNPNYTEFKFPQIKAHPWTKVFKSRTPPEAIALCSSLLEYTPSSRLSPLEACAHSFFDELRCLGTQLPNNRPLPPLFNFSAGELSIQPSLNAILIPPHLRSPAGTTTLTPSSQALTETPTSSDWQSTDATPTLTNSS

[20] = target: Glycogen synthase kinase-3 beta (Homo sapiens, UniProt P49841); test: Inhibition of Human GSK-3 beta Activity Measured in Biochemical System Using Microfluidics - 2063-05_Inhibitor_Dose_DryPowder_Activity. [Related pubchem assays (depositor defined):AID2709]
Sequence of Glycogen synthase kinase-3 beta (P49841 whole entry): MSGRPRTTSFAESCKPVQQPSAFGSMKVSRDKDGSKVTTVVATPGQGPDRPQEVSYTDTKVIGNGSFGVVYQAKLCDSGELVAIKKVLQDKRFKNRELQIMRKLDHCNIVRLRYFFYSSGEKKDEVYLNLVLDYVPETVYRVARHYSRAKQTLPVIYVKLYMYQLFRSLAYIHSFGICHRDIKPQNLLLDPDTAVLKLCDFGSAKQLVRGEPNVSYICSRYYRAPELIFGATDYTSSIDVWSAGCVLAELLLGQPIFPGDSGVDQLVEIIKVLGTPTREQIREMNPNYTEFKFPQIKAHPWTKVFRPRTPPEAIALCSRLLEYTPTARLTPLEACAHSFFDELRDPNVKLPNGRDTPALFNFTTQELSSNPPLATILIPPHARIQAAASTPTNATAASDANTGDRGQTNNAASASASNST

Hexokinase-1 [21] = target: T4, Hexokinase-1; test: hexokinase 1 activity inhibitors, potency – biochemical, set 2, resazurin fluorescence coupled readout, selectivity assay for HKDC1 inhibitor project, SAR follow-up (AID 588356); type: functional
Hexokinase HKDC1 [22] = target: T5, Hexokinase HKDC1; test: analog inhibition of human HKDC1 activity – biochemical, set 2, SAR follow-up (AID 588355); type: functional
[23] = test system: Streptococcus sp. 'group A'; test: Streptococcus pyogenes SK(-)GAS viability under kanamycin – luminescence, BacTiterGlo, confirmation, counter-screen for streptokinase expression inhibitor project, dose response (AID 1900); type: functional, organism-based
Streptococcus = test: GAS UMAA2166 growth inhibition – luminescence, BacTiterGlo, counter-screen for streptokinase expression inhibitor project, dose response (AID 1915); type: functional, organism-based;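 further: potency for reduction of bacterial viability or growth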
Escherichia coli = test: microbe, parasite or virus in culture

Cc1cc([N+](=O)[O-])nn1CCCC(=O)NC1CCCCC1
IC50 (HEK293 [1]): > 67.5 µM (inactive)
IC50 [2]: > 67.5 µM (inactive)

CCCCCC/C(C=O)=C\c1ccccc1
AC50 [3]: 0.0501 µM (inconclusive)

Cc1cc2[nH]c3c(c[n+](C)c4ccccc34)c2cc1C
IC50 [4]: 0.639 µM (active)
EC50 (BJ [5]): 3.9 µM (active)
EC50 (BJ [6]): 5.11 µM (inconclusive)
EC50 [7]: 0.68 µM (active)
CC50 [8]: 2.06 µM (active)
EC50 [9]: 6.13 µM (active)
EC50 (BJ [10]): 5.36 µM (inconclusive)
EC50 [11]: 5.3 µM (active)
CC50 [12]: 11.8 µM (active)
IC50 [13]: 36.2 µM (active)
AC50 [14]: 0.372 µM (active)
EC50 (HEK293 [15]): > 59.7 µM (inactive)
EC50 (HEK293 [16]): > 59.7 µM (inactive)

COc1cc2c(cc1OC)-c1cc(NCc3cccnc3)nc(=O)n1CC2
IC50 (Hexokinase-1 [17]): > 80 µM (inactive)
IC50 (Hexokinase HKDC1 [18]): > 80 µM (inactive)

CCCCOC(=O)C1C(C)=Nc2ncnn2C1c1cccc(OC)c1OC (stereo not given)
AC50 [19]: 0.989 µM (active)
AC50 [20]: 0.538 µM (active)

CC(=O)NC1C(=O)N(Cc2ccccc2)c2ccc(C)cc21 (stereo not given)
IC50 (Hexokinase-1 [21]): > 80 µM (inactive)
IC50 (Hexokinase HKDC1 [22]): > 80 µM (inactive)

CCN1CCN(c2cc3c(cc2F)c(=O)c(C(=O)O)cn3C2CC2)CC1 [ENROFLOXACIN]
EC50 [23]: 1.22 µM (active)
EC50 (Streptococcus): 1.04 µM (active)
AC50 (Escherichia coli): 2.46 µM (active)

Source: ChEMBL document CHEMBL1201862, “PubChem BioAssay data set” (2004)
